The results in this text go back to US20240336596A1, “PARP7 INHIBITOR AND USE THEREOF” (NOVOSTAR PHARMACEUTICALS, LTD., priority 2022, published 2024).

Data set [1] can be described thus: Pharmacokinetic study in mice (IV and oral gavage). Type of data set: in vivo, CD-1 mice. To be noted: for clearance / bioavailability / AUC(0-t) / half-life / Cmax: mouse, plasma, male CD-1 mice; for clearance: read-out: CL(iv) (converted); for bioavailability: oral bioavailability, PO 10 mg/kg vs IV 3 mg/kg; for AUClast (plasma exposure) relative to RBN-2397 / drug plasma half-life (T1/2) relative to RBN-2397 / drug clearance (CL(iv)) relative to RBN-2397 / maximum blood concentration (Cmax) relative to RBN-2397: mice; for drug plasma half-life (T1/2) relative to RBN-2397 / drug clearance (CL(iv)) relative to RBN-2397: intravenous administration; for drug clearance (CL(iv)) relative to RBN-2397: fraction of RBN-2397 value. On the procedure: Formulation of intravenous and oral gavage administration solutions: The compounds to be tested were dissolved in solutions formulated with 5% DMSO, 10% solutol HS15, and 85% saline.
Dosage (measured as the amount of compound in the administration solution (mg)/mouse body weight (kg)): 3 mg/kg intravenously (IV), 10 mg/kg oral gavage (PO).
A total of 18 CD-1 mice (Shanghai Jihui Experimental Animal Feeding Co., LTD.), male, weight 28-31 g, were fasted for 12 hours and randomly divided into 2 groups (Group A and Group B) with 9 mice in each group. Animals in Group A were given the compound solution by oral gavage at the dose of 10 mg/kg. Animals in Group B were given the compound solution by tail vein injection at the dose of 3 mg/kg, and blank blood was taken before administration. About 110 μL of venous blood was taken from animals in Group A at 0.25 h, 0.5 h, 1 h, 2 h, 4 h, 8 h, and 24 h after administration. About 110 μL of venous blood was taken from animals in Group B at 0.083 h, 0.25 h, 0.5 h, 1 h, 2 h, 4 h, 8 h, and 24 h after administration, and all were placed in test tubes with heparin, centrifuged, and plasma was collected and stored at −70° C. for testing.
AUClast represents the area under the drug time curve from the beginning of the administration time to the last point, that is, the area surrounded by the blood drug concentration curve to the time axis. CL(iv) represents the drug clearance of intravenous administration; T1/2 represents the plasma half-life of the drug, which refers to the time required for half of the drug to be eliminated from the body. Cmax represents the maximum concentration of the drug in the plasma after administration. F % indicates oral bioavailability of the drug.

For the next data set, the system named is NCI-H1373 cancer cells. The data set is described as follows: NCI-H1373 cancer cell growth inhibition (CellTiter-Glo, 144 hours). Type of data set: cell-based. To be noted: Homo sapiens, 144 hours culture. The method, boiled down: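 Cells seeded at 3500/well and dosed after 24 h with a 10-point series from 10 μM down to 0.0005 μM (0.2% DMSO). After 144 h, viability was read by CellTiter-Glo luminescence. Growth inhibition was calculated relative to day-0 and solvent-control RLU, and IC50 was obtained from dose-response curve fits.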

For data set [2], the target named is T1, recombinant human PARP7 protein (Homo sapiens, UniProt Q7Z3E1).
T1 construct: purchased Abcam ab271651
T1 sequence (Q7Z3E1 1-657): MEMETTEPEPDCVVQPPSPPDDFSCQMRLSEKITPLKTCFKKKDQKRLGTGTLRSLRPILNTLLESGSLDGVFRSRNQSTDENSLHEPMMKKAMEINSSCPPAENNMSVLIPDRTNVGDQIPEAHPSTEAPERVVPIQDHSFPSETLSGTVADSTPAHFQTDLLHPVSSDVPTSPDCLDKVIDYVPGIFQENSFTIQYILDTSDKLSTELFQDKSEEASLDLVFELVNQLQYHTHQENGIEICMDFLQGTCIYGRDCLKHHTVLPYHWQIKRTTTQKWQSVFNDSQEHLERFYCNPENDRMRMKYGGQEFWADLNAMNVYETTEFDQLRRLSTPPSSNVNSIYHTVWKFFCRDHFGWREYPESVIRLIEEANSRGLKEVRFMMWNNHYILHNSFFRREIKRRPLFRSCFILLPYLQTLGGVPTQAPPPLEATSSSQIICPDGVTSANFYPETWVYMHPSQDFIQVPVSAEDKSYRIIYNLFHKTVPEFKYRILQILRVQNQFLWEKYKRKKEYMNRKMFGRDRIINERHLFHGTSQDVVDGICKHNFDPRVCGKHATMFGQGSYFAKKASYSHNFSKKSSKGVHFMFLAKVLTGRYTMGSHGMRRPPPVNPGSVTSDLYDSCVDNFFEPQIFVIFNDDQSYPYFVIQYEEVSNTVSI
The data set is described as follows: Inhibition of PARP7 biological enzyme activity (histone-coated plate, Biotin-NAD+, chemiluminescence). Type of data set: biochemical. Particulars: recombinant human PARP7, Biotin-NAD+ substrate. The method, boiled down:
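Recombinant human PARP7 was preincubated with compound (1000–0.05 nM final) on histone-coated plates for 15 min at 25 °C, then reacted with Biotin-NAD+ for 60 min at 25 °C. Ribosylation was detected by streptavidin-HRP chemiluminescence. IC50 was fitted from % inhibition relative to controls.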

pIC50: −log10 of the molar value.

Usually bioavailability stands for dose-corrected exposure relative to a reference, in per cent. A higher bioavailability goes with good availability. A word on the AUC(0-t): it is exposure summed from dosing to a finite time, without extrapolation to infinity. The low end stands for less exposure, the high end for more exposure. The half-life is the time in which the quantity being followed falls by half. Low values mean rapid decline, high ones slow decline. A word on the Cmax: it is the maximum level reached in the sampled fluid or tissue. `C[C@@H](COCCC(=O)N1CCN(c2ncc(C(F)(F)F)cn2)CC1)Nc1cn[nH]c(=O)c1C(F)(F)F` [RBN-2397, reference compound]: in data set [1] (IV 3 mg/kg), the clearance is 68.3 mL/min/kg, the AUC(0-t) was determined as 732 ng·h/mL and the half-life is 0.2 h. Further, the bioavailability in data set [1] was 23.9%. In data set [1] (PO 10 mg/kg), this compound had an exposure AUC(0-t) of 582 ng·h/mL and a Cmax of 682 ng/mL.
As usually defined, the pIC50 is the IC50 on a negative log10 scale, so that one unit is a factor of ten. On to `C[C@@H](CONC(=O)CC1CCN(c2ncc(C(F)(F)F)cn2)CC1)Nc1cn[nH]c(=O)c1C(F)(F)F` [Example 17, (S)—N-(2-((6-oxo-5-(trifluoromethyl)-1,6-dihydropyridazin-4-yl)amino)propoxy)-2-(1-(5-(trifluoromethyl)pyrimidin-2-yl)piperidin-4-yl)acetamide], for which the “AUClast (plasma exposure) relative to RBN-2397” value in data set [1] (3 mg/kg intravenous injection) was “about 4.4 times”. In data set [1], the “drug plasma half-life (T1/2) relative to RBN-2397” value was 8 times, the “drug clearance (CL(iv)) relative to RBN-2397” value is “about ⅕” and the bioavailability is 61.3%. In data set [1] (IV 3 mg/kg), the clearance was 15.5 mL/min/kg, the AUC(0-t) was found to be 3210 ng·h/mL and the half-life was 1.62 h. In addition, in data set [1] (PO 10 mg/kg), the AUC(0-t) came out at 6550 ng·h/mL and the concentration peaked (Cmax) at 5320 ng/mL. For the same compound, in data set [1] (oral gavage 10 mg/kg), the “AUClast (plasma exposure) relative to RBN-2397” value is “about 11.3 times” and the “maximum blood concentration (Cmax) relative to RBN-2397” value was found to be 7.8 times. In the data set on NCI-H1373 cancer cells, this compound had a pIC50 of over 7.00. For the same compound, the pIC50 in data set [2] is over 8.00.
Regarding `C[C@@H](CONC(=O)CC1=CCN(c2ncc(C(F)(F)F)cn2)CC1)Nc1cn[nH]c(=O)c1C(F)(F)F` [Example 25, (S)—N-(2-((6-oxo-5-(trifluoromethyl)-1,6-dihydropyridazin-4-yl)amino)propoxy)-2-(1-(5-(trifluoromethyl)pyrimidin-2-yl)-1,2,3,6-tetrahydropyridin-4-yl)acetamide], the “AUClast (plasma exposure) relative to RBN-2397” value in data set [1] (3 mg/kg intravenous injection) is recorded as “about 3.8 times”. In addition, in data set [1], the “drug plasma half-life (T1/2) relative to RBN-2397” value was found to be 27.8 times, the “drug clearance (CL(iv)) relative to RBN-2397” value is on record as “about ⅕” and the bioavailability is 75.9%. In data set [1] (IV 3 mg/kg), the clearance was 17.8 mL/min/kg, the AUC(0-t) came out at 2780 ng·h/mL and the half-life was 5.55 h. In addition, in data set [1] (PO 10 mg/kg), the AUC(0-t) was 7060 ng·h/mL and the Cmax is 7230 ng/mL. Also, in data set [1] (oral gavage 10 mg/kg), the “AUClast (plasma exposure) relative to RBN-2397” value is recorded as about 12.1 times and the “maximum blood concentration (Cmax) relative to RBN-2397” value stood at 10.6 times. The compound also gave a negative-log IC50 (pIC50) with NCI-H1373 cancer cells of over 7.00.
